{"source": "paper PMC10425210", "about": "(The Journal of Clinical Investigation, 2023)", "key": {"[1]": {"system": "SHIV-SF162P3", "assay_type": "in vivo, rhesus macaques"}, "[2]": {"system": "HIV-1", "test": "Antiviral assay in human PBMCs infected with HIV-1 clinical isolates", "assay_type": "cell-based", "details": "HIV-1, human PBMCs; EC95 x human plasma shift"}, "[3]": {"details": "through week 52 of treatment across clinical studies; cited from earlier work"}}, "note": "Several values for one entry are separate records, joined by “and”; a condition that tells them apart may be missing. Equal values may be shown once. Entries after “also recorded” stand apart in the source; their conditions may differ. Read-outs that look alike come from different tables or passages of the source."}
{"compound": "CC(C)(C#Cc1ccc(-c2ccc(Cl)c3c(NS(C)(=O)=O)nn(CC(F)(F)F)c23)c([C@H](Cc2cc(F)cc(F)c2)NC(=O)Cn2nc(C(F)(F)F)c3c2C(F)(F)[C@@H]2C[C@H]32)n1)S(C)(=O)=O", "note": "[LEN, Lenacapavir]", "values": [{"measurement": "Intact SHIV DNA / 10M PBMC", "setting": "[1]; animal V430, 50 mg/kg, Wk 2 post challenge", "result": "1 / 10M PBMC"}, {"measurement": "Intact SHIV DNA / 10M PBMC", "setting": "[1]; animal V430, 50 mg/kg, Wk 10 post challenge", "result": "1 / 10M PBMC"}, {"measurement": "Plasma SHIV RNA", "setting": "[1]; animal V430, 50 mg/kg, week 0 post challenge", "result": 62, "unit": "copies per mL"}, {"measurement": "Plasma SHIV RNA", "setting": "[1]; animal V430, 50 mg/kg, week 1 post challenge", "result": 62, "unit": "copies per mL"}, {"measurement": "Plasma SHIV RNA", "setting": "[1]; animal V430, 50 mg/kg, week 2 post challenge", "result": 62, "unit": "copies per mL"}, {"measurement": "Plasma SHIV RNA", "setting": "[1]; animal V430, 50 mg/kg, week 3 post challenge", "result": 62, "unit": "copies per mL"}, {"measurement": "Plasma SHIV RNA", "setting": "[1]; animal V430, 50 mg/kg, week 4 post challenge", "result": 62, "unit": "copies per mL"}, {"measurement": "Plasma SHIV RNA", "setting": "[1]; animal V430, 50 mg/kg, week 5 post challenge", "result": 62, "unit": "copies per mL"}, {"measurement": "Plasma SHIV RNA", "setting": "[1]; animal V430, 50 mg/kg, week 6 post challenge", "result": 62, "unit": "copies per mL"}, {"measurement": "Plasma SHIV RNA", "setting": "[1]; animal V430, 50 mg/kg, week 7 post challenge", "result": 62, "unit": "copies per mL"}, {"measurement": "Plasma SHIV RNA", "setting": "[1]; animal V430, 50 mg/kg, week 8 post challenge", "result": 62, "unit": "copies per mL"}, {"measurement": "Plasma SHIV RNA", "setting": "[1]; animal V430, 50 mg/kg, week 9 post challenge", "result": 62, "unit": "copies per mL"}, {"measurement": "Plasma SHIV RNA", "setting": "[1]; animal V430, 50 mg/kg, week 10 post challenge", "result": 62, "unit": "copies per mL"}, {"measurement": "Plasma SHIV RNA", "setting": "[1]; animal V430, 50 mg/kg, week 11 post challenge", "result": 62, "unit": "copies per mL"}, {"measurement": "Plasma SHIV RNA", "setting": "[1]; animal V430, 50 mg/kg, week 12 post challenge", "result": 62, "unit": "copies per mL"}, {"measurement": "Plasma SHIV RNA", "setting": "[1]; animal V430, 50 mg/kg, week 13 post challenge", "result": 62, "unit": "copies per mL"}, {"measurement": "Plasma SHIV RNA", "setting": "[1]; animal V430, 50 mg/kg, week 14 post challenge", "result": 62, "unit": "copies per mL"}, {"measurement": "Plasma SHIV RNA", "setting": "[1]; animal V430, 50 mg/kg, week 15 post challenge", "result": 62, "unit": "copies per mL"}, {"measurement": "Plasma SHIV RNA", "setting": "[1]; animal V430, 50 mg/kg, week 16 post challenge", "result": 62, "unit": "copies per mL"}, {"measurement": "Plasma SHIV RNA", "setting": "[1]; animal V430, 50 mg/kg, week 17 post challenge", "result": 62, "unit": "copies per mL"}, {"measurement": "Plasma SHIV RNA", "setting": "[1]; animal V430, 50 mg/kg, week 18 post challenge", "result": 62, "unit": "copies per mL"}, {"measurement": "Challenge outcome", "setting": "[1]; animal V435, 75 mg/kg", "result": "Infected"}, {"measurement": "Intact SHIV DNA / 10M PBMC", "setting": "[1]; animal V435, 75 mg/kg, Wk 2 post challenge", "result": "1890.13 / 10M PBMC"}, {"measurement": "Plasma SHIV RNA", "setting": "[1]; animal V435, 75 mg/kg, week 0 post challenge", "result": 62, "unit": "copies per mL"}, {"measurement": "Plasma SHIV RNA", "setting": "[1]; animal V435, 75 mg/kg, week 1 post challenge", "result": 62, "unit": "copies per mL"}, {"measurement": "Plasma SHIV RNA", "setting": "[1]; animal V435, 75 mg/kg, week 2 post challenge", "result": 756278, "unit": "copies per mL"}, {"measurement": "Plasma SHIV RNA", "setting": "[1]; animal V435, 75 mg/kg, week 6 post challenge", "result": 242042, "unit": "copies per mL"}, {"measurement": "Plasma SHIV RNA", "setting": "[1]; animal V435, 75 mg/kg, week 7 post challenge", "result": 286179, "unit": "copies per mL"}, {"measurement": "Plasma SHIV RNA", "setting": "[1]; animal V435, 75 mg/kg, week 9 post challenge", "result": 32896, "unit": "copies per mL"}, {"measurement": "Plasma SHIV RNA", "setting": "[1]; animal V435, 75 mg/kg, week 10 post challenge", "result": 40477, "unit": "copies per mL"}, {"measurement": "Plasma SHIV RNA", "setting": "[1]; animal V435, 75 mg/kg, week 11 post challenge", "result": 31394, "unit": "copies per mL"}, {"measurement": "Plasma SHIV RNA", "setting": "[1]; animal V435, 75 mg/kg, week 12 post challenge", "result": 7502, "unit": "copies per mL"}, {"measurement": "Plasma SHIV RNA", "setting": "[1]; animal V435, 75 mg/kg, week 13 post challenge", "result": 16622, "unit": "copies per mL"}, {"measurement": "Plasma SHIV RNA", "setting": "[1]; animal V435, 75 mg/kg, week 14 post challenge", "result": 6647, "unit": "copies per mL"}, {"measurement": "Plasma SHIV RNA", "setting": "[1]; animal V435, 75 mg/kg, week 15 post challenge", "result": 46117, "unit": "copies per mL"}, {"measurement": "Plasma SHIV RNA", "setting": "[1]; animal V435, 75 mg/kg, week 16 post challenge", "result": 21357, "unit": "copies per mL"}, {"measurement": "Plasma SHIV RNA", "setting": "[1]; animal V435, 75 mg/kg, week 17 post challenge", "result": 55828, "unit": "copies per mL"}, {"measurement": "Plasma SHIV RNA", "setting": "[1]; animal V435, 75 mg/kg, week 18 post challenge", "result": 34073, "unit": "copies per mL"}, {"measurement": "Plasma SHIV RNA", "setting": "[1]; animal V435, 75 mg/kg, week 19 post challenge", "result": 913, "unit": "copies per mL"}, {"measurement": "Plasma SHIV RNA", "setting": "[1]; animal V435, 75 mg/kg, week 20 post challenge", "result": 62, "unit": "copies per mL"}, {"measurement": "Challenge outcome", "setting": "[1]; animal V470, 50 mg/kg", "result": "Not infected"}, {"measurement": "Intact SHIV DNA / 10M PBMC", "setting": "[1]; animal V470, 50 mg/kg, Wk 2 post challenge", "result": "1 / 10M PBMC"}, {"measurement": "Intact SHIV DNA / 10M PBMC", "setting": "[1]; animal V470, 50 mg/kg, Wk 10 post challenge", "result": "1 / 10M PBMC"}, {"measurement": "Plasma SHIV RNA", "setting": "[1]; animal V470, 50 mg/kg, week 0 post challenge", "result": 62, "unit": "copies per mL"}, {"measurement": "Plasma SHIV RNA", "setting": "[1]; animal V470, 50 mg/kg, week 1 post challenge", "result": 62, "unit": "copies per mL"}, {"measurement": "Plasma SHIV RNA", "setting": "[1]; animal V470, 50 mg/kg, week 2 post challenge", "result": 62, "unit": "copies per mL"}, {"measurement": "Plasma SHIV RNA", "setting": "[1]; animal V470, 50 mg/kg, week 3 post challenge", "result": 62, "unit": "copies per mL"}, {"measurement": "Plasma SHIV RNA", "setting": "[1]; animal V470, 50 mg/kg, week 4 post challenge", "result": 62, "unit": "copies per mL"}, {"measurement": "Plasma SHIV RNA", "setting": "[1]; animal V470, 50 mg/kg, week 5 post challenge", "result": 62, "unit": "copies per mL"}, {"measurement": "Plasma SHIV RNA", "setting": "[1]; animal V470, 50 mg/kg, week 6 post challenge", "result": 62, "unit": "copies per mL"}, {"measurement": "Plasma SHIV RNA", "setting": "[1]; animal V470, 50 mg/kg, week 7 post challenge", "result": 62, "unit": "copies per mL"}, {"measurement": "Plasma SHIV RNA", "setting": "[1]; animal V470, 50 mg/kg, week 8 post challenge", "result": 62, "unit": "copies per mL"}, {"measurement": "Plasma SHIV RNA", "setting": "[1]; animal V470, 50 mg/kg, week 9 post challenge", "result": 62, "unit": "copies per mL"}, {"measurement": "Plasma SHIV RNA", "setting": "[1]; animal V470, 50 mg/kg, week 10 post challenge", "result": 62, "unit": "copies per mL"}, {"measurement": "Plasma SHIV RNA", "setting": "[1]; animal V470, 50 mg/kg, week 11 post challenge", "result": 62, "unit": "copies per mL"}, {"measurement": "Plasma SHIV RNA", "setting": "[1]; animal V470, 50 mg/kg, week 12 post challenge", "result": 62, "unit": "copies per mL"}, {"measurement": "Plasma SHIV RNA", "setting": "[1]; animal V470, 50 mg/kg, week 13 post challenge", "result": 62, "unit": "copies per mL"}, {"measurement": "Plasma SHIV RNA", "setting": "[1]; animal V470, 50 mg/kg, week 14 post challenge", "result": 62, "unit": "copies per mL"}, {"measurement": "Plasma SHIV RNA", "setting": "[1]; animal V470, 50 mg/kg, week 15 post challenge", "result": 62, "unit": "copies per mL"}, {"measurement": "Plasma SHIV RNA", "setting": "[1]; animal V470, 50 mg/kg, week 16 post challenge", "result": 62, "unit": "copies per mL"}, {"measurement": "Plasma SHIV RNA", "setting": "[1]; animal V470, 50 mg/kg, week 17 post challenge", "result": 62, "unit": "copies per mL"}, {"measurement": "Plasma SHIV RNA", "setting": "[1]; animal V470, 50 mg/kg, week 18 post challenge", "result": 62, "unit": "copies per mL"}, {"measurement": "reduction of the rate of infection per exposure", "setting": "[1]; compared with the untreated group", "result": "more than 2 fold"}, {"measurement": "intact proviral DNA assay (IPDA) signal", "setting": "[1]; eight SHIV-negative animals, weeks 2 and 10", "result": "No signal was detected"}, {"measurement": "Peak Plasma SHIV RNA", "setting": "[1]; individual LEN-dosed infected animals", "result": "299412 copies/mL and 1140343 copies/mL and 35193943 copies/mL"}, {"measurement": "animals viremic after challenge", "setting": "[1]; of 11 LEN-dosed animals, 100 TCID50, 2 weeks after challenge", "result": 3, "unit": "animals"}, {"measurement": "anti-capsid (p27) antibody ELISA", "setting": "[1]; other 8 animals, through week 10 after challenge", "result": "no antibodies were detectable"}, {"measurement": "LEN-dosed animals with confirmed uninfected status", "setting": "[1]; plasma PCR, serology, IPDA", "result": "8 of 11"}, {"measurement": "Challenge outcome", "setting": "[1]; rhesus monkey, in vivo", "result": "Not infected"}, {"measurement": "Intact SHIV DNA / 10M PBMC", "setting": "[1]; rhesus monkey, in vivo", "result": "1 / 10M PBMC"}, {"measurement": "Plasma SHIV RNA", "setting": "[1]; rhesus monkey, in vivo", "result": 62, "unit": "copies per mL"}, {"measurement": "resistance emergence, capsid sequence of plasma virus", "setting": "[1]; rhesus monkey, in vivo", "result": "no emerging mutations in capsid; also recorded: No resistance was selected"}, {"measurement": "peak viremia, LEN-dosed infected vs untreated animals", "setting": "[1]; same viral inoculum", "result": "no significant differences"}, {"measurement": "paEC95 (protein-adjusted EC95)", "setting": "[2]", "result": "2.01 nM and 2.01 ± 1.22 nM"}, {"measurement": "serious adverse events or laboratory abnormalities", "setting": "[3]", "result": "no serious adverse events or laboratory abnormalities related to LEN"}]}
